Experimental data: article PMC7451048 (Drug metabolism letters, 2019)

Columns and labels:
OATP1B3 = biological target: T1, OATP1B3 (Homo sapiens, UniProt Q9NPD5)
T1 sequence (Q9NPD5 1-702): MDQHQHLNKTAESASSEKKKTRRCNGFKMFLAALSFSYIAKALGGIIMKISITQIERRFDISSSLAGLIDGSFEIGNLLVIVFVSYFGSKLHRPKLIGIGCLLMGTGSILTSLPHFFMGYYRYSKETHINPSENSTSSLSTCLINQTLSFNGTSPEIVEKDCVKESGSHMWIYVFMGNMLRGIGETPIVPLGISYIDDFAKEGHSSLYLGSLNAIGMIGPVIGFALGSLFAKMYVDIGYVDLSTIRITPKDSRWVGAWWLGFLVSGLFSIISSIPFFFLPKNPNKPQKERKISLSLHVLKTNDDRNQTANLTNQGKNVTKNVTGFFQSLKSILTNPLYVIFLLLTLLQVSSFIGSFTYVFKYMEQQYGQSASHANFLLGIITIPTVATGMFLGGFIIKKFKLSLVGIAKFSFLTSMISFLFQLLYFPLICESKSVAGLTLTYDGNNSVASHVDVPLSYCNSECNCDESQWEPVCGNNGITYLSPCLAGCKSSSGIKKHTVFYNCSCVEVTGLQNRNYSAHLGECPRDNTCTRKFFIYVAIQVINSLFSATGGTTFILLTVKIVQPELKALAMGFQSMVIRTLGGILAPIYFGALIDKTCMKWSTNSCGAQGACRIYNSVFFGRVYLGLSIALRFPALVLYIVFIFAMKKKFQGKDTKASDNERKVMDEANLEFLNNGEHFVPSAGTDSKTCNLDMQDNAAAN

OATP2B1 [1] = biological target: T2, OATP2B1 (Homo sapiens, UniProt O94956)
T2 sequence (O94956 1-709): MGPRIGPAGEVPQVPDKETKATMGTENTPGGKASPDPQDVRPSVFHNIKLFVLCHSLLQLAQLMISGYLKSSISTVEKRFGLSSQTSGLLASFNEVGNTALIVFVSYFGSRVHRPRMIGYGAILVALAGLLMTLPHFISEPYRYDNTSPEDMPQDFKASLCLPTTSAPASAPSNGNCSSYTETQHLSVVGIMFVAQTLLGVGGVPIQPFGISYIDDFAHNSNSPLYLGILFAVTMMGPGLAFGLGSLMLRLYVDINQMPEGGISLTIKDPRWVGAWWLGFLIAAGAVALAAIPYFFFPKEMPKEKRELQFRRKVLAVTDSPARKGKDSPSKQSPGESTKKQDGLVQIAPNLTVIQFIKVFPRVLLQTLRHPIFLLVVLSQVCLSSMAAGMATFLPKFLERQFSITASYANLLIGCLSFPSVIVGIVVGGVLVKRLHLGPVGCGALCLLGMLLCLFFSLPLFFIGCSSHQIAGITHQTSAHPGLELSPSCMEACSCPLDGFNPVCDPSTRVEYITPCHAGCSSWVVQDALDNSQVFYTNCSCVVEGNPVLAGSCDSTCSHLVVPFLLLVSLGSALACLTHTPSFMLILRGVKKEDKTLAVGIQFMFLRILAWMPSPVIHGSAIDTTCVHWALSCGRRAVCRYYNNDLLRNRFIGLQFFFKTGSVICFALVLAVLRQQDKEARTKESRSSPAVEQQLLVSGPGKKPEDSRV

[2] = ref [14], [15]; cited from earlier work
MRP2 = MRP2 (Homo sapiens, UniProt Q92887); assay: Plasma membrane vesicle transport assay, MRP2 vesicles; settings: for Difference in MRP2 vesicle uptake between ATP and AMP: 10 μM, 1 min (Fig. 9)
OCT1 = biological target: T3, OCT1 (Homo sapiens, UniProt O15245); assay: Cellular uptake assay, HEK/OCT1 vs HEK empty vector cells
T3 sequence (O15245 1-554): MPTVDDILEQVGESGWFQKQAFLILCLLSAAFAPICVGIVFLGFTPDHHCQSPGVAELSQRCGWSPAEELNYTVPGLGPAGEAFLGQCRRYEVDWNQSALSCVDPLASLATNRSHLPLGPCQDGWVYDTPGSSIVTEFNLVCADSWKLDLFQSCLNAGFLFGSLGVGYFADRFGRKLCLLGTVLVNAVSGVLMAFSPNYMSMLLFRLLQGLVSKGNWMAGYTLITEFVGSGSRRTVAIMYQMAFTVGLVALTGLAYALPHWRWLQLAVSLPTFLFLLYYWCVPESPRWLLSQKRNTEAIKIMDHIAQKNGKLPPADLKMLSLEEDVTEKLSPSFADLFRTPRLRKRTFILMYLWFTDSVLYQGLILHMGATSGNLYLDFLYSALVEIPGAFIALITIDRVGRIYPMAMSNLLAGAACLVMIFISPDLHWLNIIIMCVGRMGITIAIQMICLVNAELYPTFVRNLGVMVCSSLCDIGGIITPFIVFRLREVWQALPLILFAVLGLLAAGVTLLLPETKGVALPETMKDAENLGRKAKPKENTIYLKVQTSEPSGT

OATP2B1 [3] = biological target: T2, OATP2B1; settings: 3 min; for Inhibition of cellular uptake by RIF, OATP2B1-overexpressing cells: 20 μM RIF, BUP 5 μM, OHB 30 μM, TB 20 μM, EB 100 μM; for Apparent Vmax / Km: net cellular uptake, HEK/OATP2B1-overexpressing cells, mean ± SD; for Km: read-out: Apparent Km

Chain of MRP2 (Q92887 whole entry): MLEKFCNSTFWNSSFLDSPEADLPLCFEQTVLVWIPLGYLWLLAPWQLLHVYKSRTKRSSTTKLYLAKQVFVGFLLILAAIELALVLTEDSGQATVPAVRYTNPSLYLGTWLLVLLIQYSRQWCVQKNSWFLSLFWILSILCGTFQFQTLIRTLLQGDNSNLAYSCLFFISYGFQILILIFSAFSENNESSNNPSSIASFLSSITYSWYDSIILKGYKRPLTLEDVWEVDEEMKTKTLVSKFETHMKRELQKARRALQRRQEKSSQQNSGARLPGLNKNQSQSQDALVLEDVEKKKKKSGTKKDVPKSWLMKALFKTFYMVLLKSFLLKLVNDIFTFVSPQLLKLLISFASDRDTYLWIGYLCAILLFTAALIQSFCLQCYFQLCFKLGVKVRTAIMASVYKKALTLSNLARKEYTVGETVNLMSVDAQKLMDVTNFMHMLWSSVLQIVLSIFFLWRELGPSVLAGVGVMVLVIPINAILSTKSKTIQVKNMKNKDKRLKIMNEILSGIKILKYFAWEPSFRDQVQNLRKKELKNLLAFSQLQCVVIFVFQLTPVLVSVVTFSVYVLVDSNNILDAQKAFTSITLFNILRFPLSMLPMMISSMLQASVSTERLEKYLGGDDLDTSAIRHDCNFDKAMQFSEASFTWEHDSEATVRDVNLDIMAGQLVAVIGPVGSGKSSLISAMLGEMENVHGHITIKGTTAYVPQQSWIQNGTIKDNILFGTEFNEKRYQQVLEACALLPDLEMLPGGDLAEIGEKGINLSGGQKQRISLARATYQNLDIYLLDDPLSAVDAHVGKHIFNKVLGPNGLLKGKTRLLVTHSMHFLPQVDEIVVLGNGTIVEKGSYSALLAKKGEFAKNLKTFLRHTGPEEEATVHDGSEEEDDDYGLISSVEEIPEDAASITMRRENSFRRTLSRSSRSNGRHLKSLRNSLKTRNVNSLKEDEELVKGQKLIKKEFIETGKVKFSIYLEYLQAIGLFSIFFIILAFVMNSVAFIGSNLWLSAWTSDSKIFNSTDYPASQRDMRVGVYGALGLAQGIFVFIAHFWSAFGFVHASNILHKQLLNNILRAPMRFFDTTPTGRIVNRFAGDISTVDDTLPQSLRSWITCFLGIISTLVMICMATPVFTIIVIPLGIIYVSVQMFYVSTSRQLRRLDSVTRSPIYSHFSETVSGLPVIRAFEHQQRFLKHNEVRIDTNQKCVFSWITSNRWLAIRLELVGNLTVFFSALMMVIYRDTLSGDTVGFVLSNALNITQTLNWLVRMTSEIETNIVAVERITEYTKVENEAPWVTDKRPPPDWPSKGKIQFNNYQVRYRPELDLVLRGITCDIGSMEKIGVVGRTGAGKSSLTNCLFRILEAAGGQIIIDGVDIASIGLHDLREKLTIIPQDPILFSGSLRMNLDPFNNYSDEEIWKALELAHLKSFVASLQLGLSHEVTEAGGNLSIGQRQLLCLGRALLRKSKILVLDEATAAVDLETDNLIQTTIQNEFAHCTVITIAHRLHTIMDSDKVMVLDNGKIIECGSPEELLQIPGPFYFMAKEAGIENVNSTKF

Structure (SMILES)	Substrate of OATP1B3 (conclusion) (OATP1B3)	Substrate of OATP2B1 (conclusion) (OATP2B1 [1])	Pharmacological activity relative to BUP [2]	Substrate of MRP2 (conclusion) (MRP2)	Difference in MRP2 vesicle uptake between ATP and AMP (MRP2)	Substrate of OCT1 (conclusion) (OCT1)	Inhibition of cellular uptake by RIF, OATP2B1-overexpressing cells (OATP2B1 [3])	Apparent Vmax (OATP2B1 [3]) [pmol/mg protein/min]	Km (OATP2B1 [3]) [µM]
CC(NC(C)(C)C)C(O)c1cccc(Cl)c1 (stereo not drawn) [EB, Erythrohydrobupropion]	not substrates	not substrates	20%	not substrates	No significant differences	not substrates	no statistically significant differences	1752±192	192 ± 35
C[C@H]1NC(C)(C)CO[C@]1(O)c1cccc(Cl)c1 [OHB, Hydroxybupropion]	not substrates	not substrates	50–100%	not substrates	No significant differences	not substrates	no statistically significant differences	1641±98	74 ± 12
C[C@H](NC(C)(C)C)[C@@H](O)c1cccc(Cl)c1 [TB, Threohydrobupropion]	not substrates	not substrates	20%	not substrates	No significant differences	not substrates	no statistically significant differences	1368±72	53 ± 9
